Reference: PubChem BioAssay AID1963973 (Molecular Pharmacology Branch, DTP, NCI, 2024)

Test system: 883617-216-R-J1-PDC tumor spheroids, viability
Test: Anticancer human tumor 883617-216-R-J1-PDC patient-derived bladder carcinoma cell line growth inhibition [PI3K]
Conditions: spheroids with HUVEC and MSC; for viability, T/C: stronger effect = lower value; active = viability on the fitted dose curve at most 10% of control; inactive = the rest
How it was run: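 Targeted small molecules plus PI3K inhibitors, half-log dose series from Cmax (default top 10 microM), were applied to heterotypic spheroids of cancer cells with HUVEC and MSCs. Viability indicated growth inhibition.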

[1] = curve of first compound, second compound 0.0316 µM
[2] = curve of first compound, second compound 0.1 µM
[3] = curve of first compound, second compound 0.316 µM
[4] = curve of first compound, second compound 1 µM
[5] = curve of first compound, second compound 3.16 µM
[6] = curve of first compound, second compound 10 µM
[7] = second compound 0.0316 µM, first compound 0.00316 µM
[8] = second compound 0.0316 µM, first compound 0.01 µM
[9] = second compound 0.0316 µM, first compound 0.0316 µM
[10] = second compound 0.0316 µM, first compound 0.1 µM
[11] = second compound 0.1 µM, first compound 0.00316 µM
[12] = second compound 0.1 µM, first compound 0.01 µM
[13] = second compound 0.1 µM, first compound 0.0316 µM
[14] = second compound 0.1 µM, first compound 0.1 µM
[15] = second compound 0.316 µM, first compound 0.00316 µM
[16] = second compound 0.316 µM, first compound 0.01 µM
[17] = second compound 0.316 µM, first compound 0.0316 µM
[18] = second compound 0.316 µM, first compound 0.1 µM
[19] = second compound 1 µM, first compound 0.00316 µM
[20] = second compound 1 µM, first compound 0.01 µM
[21] = second compound 1 µM, first compound 0.0316 µM
[22] = second compound 1 µM, first compound 0.1 µM
[23] = second compound 3.16 µM, first compound 0.00316 µM
[24] = second compound 3.16 µM, first compound 0.01 µM
[25] = second compound 3.16 µM, first compound 0.0316 µM
[26] = second compound 3.16 µM, first compound 0.1 µM
[27] = second compound 10 µM, first compound 0.00316 µM
[28] = second compound 10 µM, first compound 0.01 µM
[29] = second compound 10 µM, first compound 0.0316 µM
[30] = second compound 10 µM, first compound 0.1 µM
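Note: spheroids exposed to agents for 7 days before the viability read.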

CCN1CCN(Cc2ccc(Nc3ncc(F)c(-c4cc(F)c5nc(C)n(C(C)C)c5c4)n3)nc2)CC1 + CC(Nc1ncnc2nc[nH]c12)c1cc2cccc(Cl)c2c(=O)n1-c1ccccc1
> 1000 nM: IC50 [1] | IC50 [2]
282 nM: IC50 [4]
582 nM: IC50 [3]
31.9 nM: IC50 [5]
3.37 nM: IC50 [6]
inactive: viability, T/C [7] 91.4% | viability, T/C [8] 79.4% | viability, T/C [9] 79.2% | viability, T/C [10] 65.7% | viability, T/C (second compound 0.0316 µM, first compound 0.316 µM) 56.3% | viability, T/C (second compound 0.0316 µM, first compound 1 µM) 51.3% | viability, T/C [11] 89.3% | viability, T/C [12] 88.8% | viability, T/C [13] 71.6% | viability, T/C [14] 60.2% | viability, T/C (second compound 0.1 µM, first compound 0.316 µM) 64.1% | viability, T/C (second compound 0.1 µM, first compound 1 µM) 50.7% | viability, T/C [15] 87.5% | viability, T/C [16] 78.4% | viability, T/C [17] 60.8% | viability, T/C [18] 67.8% | viability, T/C (second compound 0.316 µM, first compound 0.316 µM) 46% | viability, T/C (second compound 0.316 µM, first compound 1 µM) 49.6% | viability, T/C [19] 69.6% | viability, T/C [20] 69.4% | viability, T/C [21] 59.3% | viability, T/C [22] 52.2% | viability, T/C (second compound 1 µM, first compound 0.316 µM) 54.8% | viability, T/C (second compound 1 µM, first compound 1 µM) 40.2% | viability, T/C [23] 72.5% | viability, T/C [24] 61.9% | viability, T/C [25] 50.3% | viability, T/C [26] 40.7% | viability, T/C (second compound 3.16 µM, first compound 0.316 µM) 40.1% | viability, T/C (second compound 3.16 µM, first compound 1 µM) 35.2% | viability, T/C [27] 51.3% | viability, T/C [28] 34.8% | viability, T/C [29] 34% | viability, T/C [30] 30.8% | viability, T/C (second compound 10 µM, first compound 0.316 µM) 28.1% | viability, T/C (second compound 10 µM, first compound 1 µM) 27%

CC(C)n1nc(-c2ccc3oc(N)nc3c2)c2c(N)ncnc21 + CC(Nc1ncnc2nc[nH]c12)c1cc2cccc(Cl)c2c(=O)n1-c1ccccc1
0.321 nM: IC50 [6]
13.5 nM: IC50 [5]
21.3 nM: IC50 [4]
34.2 nM: IC50 [2]
30 nM: IC50 [3]
32.1 nM: IC50 [1]
inactive: viability, T/C (second compound 0.0316 µM, first compound 0.000316 µM) 91% | viability, T/C (second compound 0.0316 µM, first compound 0.001 µM) 75.2% | viability, T/C [7] 76.8% | viability, T/C [8] 82% | viability, T/C [9] 50.4% | viability, T/C [10] 18.4% | viability, T/C (second compound 0.1 µM, first compound 0.000316 µM) 95.3% | viability, T/C (second compound 0.1 µM, first compound 0.001 µM) 93% | viability, T/C [11] 87.6% | viability, T/C [12] 69.7% | viability, T/C [13] 54.5% | viability, T/C [14] 17.4% | viability, T/C (second compound 0.316 µM, first compound 0.000316 µM) 87.4% | viability, T/C (second compound 0.316 µM, first compound 0.001 µM) 92.5% | viability, T/C [15] 81.7% | viability, T/C [16] 72.8% | viability, T/C [17] 49% | viability, T/C [18] 19.9% | viability, T/C (second compound 1 µM, first compound 0.000316 µM) 91.2% | viability, T/C (second compound 1 µM, first compound 0.001 µM) 77.1% | viability, T/C [19] 80.2% | viability, T/C [20] 68.3% | viability, T/C [21] 40.2% | viability, T/C [22] 19.6% | viability, T/C (second compound 3.16 µM, first compound 0.000316 µM) 83.6% | viability, T/C (second compound 3.16 µM, first compound 0.001 µM) 58.9% | viability, T/C [23] 63.2% | viability, T/C [24] 60.6% | viability, T/C [25] 38.1% | viability, T/C [26] 17.7% | viability, T/C (second compound 10 µM, first compound 0.000316 µM) 48.3% | viability, T/C (second compound 10 µM, first compound 0.001 µM) 50.7% | viability, T/C [27] 45.8% | viability, T/C [28] 36.3% | viability, T/C [29] 26.8% | viability, T/C [30] 13%

CCN1CCN(Cc2ccc(Nc3ncc(F)c(-c4cc(F)c5nc(C)n(C(C)C)c5c4)n3)nc2)CC1
inactive: viability, T/C (compound 0.00316 µM) 92% [middle of 4 runs] | viability, T/C (compound 0.01 µM) 78.9% [middle of 4 runs] | viability, T/C (compound 0.0316 µM) 75.5% [middle of 4 runs] | viability, T/C (compound 0.1 µM) 59% [middle of 4 runs] | viability, T/C (compound 0.316 µM) 56.6% [middle of 4 runs] | viability, T/C (compound 1 µM) 47.2% [middle of 4 runs]

CC(C)n1nc(-c2ccc3oc(N)nc3c2)c2c(N)ncnc21
inactive: viability, T/C (compound 0.000316 µM) 95.2% [middle of 4 runs] | viability, T/C (compound 0.001 µM) 90.4% [middle of 4 runs] | viability, T/C (compound 0.00316 µM) 87.5% [middle of 4 runs] | viability, T/C (compound 0.01 µM) 73% [middle of 4 runs] | viability, T/C (compound 0.0316 µM) 47.2% [middle of 4 runs] | viability, T/C (compound 0.1 µM) 20.2% [middle of 4 runs]
27.6 nM [middle of 4 runs]: IC50 (curve of compound)
